Test results taken from patent publication US5631222A, “Endothelin-antagonizing peptide” (Kyowa Hakko Kogyo Co., Ltd., priority 1993, dated 1997).
Positions of bridges follow the written chain, without caps; N, C: chain ends. Non-standard residues stand in square brackets, D forms with d. Residues, ends and D or L forms follow the SMILES beside them. 2Thi = N[C@@H](Cc1cccs1)C(=O)O; Cha = N[C@@H](CC1CCCCC1)C(=O)O; Abu = CC[C@H](N)C(=O)O

Key:
endothelin receptor = biological target: T1, endothelin receptor (Bos taurus, UniProt P28088); assay: Endothelin receptor-antagonizing activity: inhibition of 125I-endothelin-1 binding to bovine cerebellum membrane fraction; settings: 125I-Endothelin-1, bovine cerebellum membrane fraction, 25° C. for 2 hours; read-out: IC50: Concentration causing 50% inhibition of endothelin1 binding
T1 construct: the suspension was used as a membrane fraction liquid; from tissue; host or cells: bovine cerebellum membrane fraction
T1 sequence (P28088 27-441): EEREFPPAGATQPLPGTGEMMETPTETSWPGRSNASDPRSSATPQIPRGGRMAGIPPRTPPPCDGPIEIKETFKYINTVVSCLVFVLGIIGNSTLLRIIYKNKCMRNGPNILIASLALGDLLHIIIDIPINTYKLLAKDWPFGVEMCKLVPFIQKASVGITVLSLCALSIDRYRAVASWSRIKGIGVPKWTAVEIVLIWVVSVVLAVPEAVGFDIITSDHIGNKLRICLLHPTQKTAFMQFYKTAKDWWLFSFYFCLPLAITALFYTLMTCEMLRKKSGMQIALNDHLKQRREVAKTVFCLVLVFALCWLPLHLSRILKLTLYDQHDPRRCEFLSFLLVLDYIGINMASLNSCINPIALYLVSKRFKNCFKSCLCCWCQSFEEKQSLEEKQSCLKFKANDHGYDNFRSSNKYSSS
Protocol: Bovine cerebellum tissue was homogenized at 4° C. by using POLYTRON (type PT10/35, manufactured by Kinematic Gmbh Co.) in a buffer solution A (1 mM NaHCO3, 5 mM ethylenediaminetetraacetic acid, 5 μg/ml leupeptin, 5 μg/ml pepstatin A, 40 μM phenylmethylsulfonyl fluoride, pH 8.3).
The obtained suspension was centrifuged for 10 minutes at 8,000 G and 4° C., and the resulting supernatant was centrifuged for 60 minutes at 40,000 G and 4° C. to obtain pellets. The obtained pellets were suspended in a buffer solution A and again centrifuged for 60 minutes at 40,000 G and 4° C. The resulting solid substance was prepared as a suspension containing 2 mg/ml of protein, and the suspension was used as a membrane fraction liquid. […] These mixtures were incubated at 25° C. for 2 hours, and then filtered with a GF/B glass filter (produced by Whatman Co.). […] The inhibition ratio against endothelin receptor binding activity was calculated according to the following equation:
Inhibition ratio (%)=(C-A/C-B)×100
B: Radioactivity in the presence of unlabelled endothelin-1
C: Radioactivity in the absence of both of the compound shown in Table 2 and unlabelled endothelin-1

[1] = system: ET-1 contraction of rat thoracic aorta ring; assay: Inhibitory effect on ET-1 contraction (ring specimen of extracted rat thoracic aorta); settings: compound 10^-7 M, ET-1 3×10^-9 M, Sprague-Dawley rat thoracic aorta ring, tension relative to norepinephrine maximum
Protocol: Test Example 2: Inhibitory Effect On ET-1 Contraction (ring specimen of extracted rat thoracic aorta)
Male Sprague-Dawley rats (Slc. 450-550 g) were anesthetized by intravenous injection of 50 mg/kg of sodium pentobarbital (Nembutal™, Dynabot), and the heads thereof were then incised to die by bleeding. The breasts of the rats were then incised to extract the thoracic aortas therefrom. After the connective tissue which adhered to the blood vessels were removed in a nutrient solution, the blood vessels were cut into rings (3-4 mm), and two metallic holders (one of which was fixed to a support rod) were passed through the blood vessel to prepare a specimen. One end of the holder was mounted on a tension transducer (TB-611T, produced by Nihon Koden) through silk yarn, and the specimen was suspended in a Magnus' tube containing a nutrient solution. Resting tension (1.5 g) was applied to the specimen, and the nutrient solution was replaced several times until the tension was stabilized. Norepinephrine [(±) hydrochloride, Sigma] (10-20 μM) was then added, and the tension generated by contraction of the specimen was measured to determine the maximum value of the tension. The tension generated was detected by the tension transducer, amplified by a pressure strain amplifier (AP-621G, produced by Nihon Koden) and then recorded by a pen recorder (TYPE3066, YOKOGAWA). After the specimen was washed several times to remove Norepinephrine, each of the compounds shown in Table 3 which was dissolved in distilled water was added to the nutrient solution so that the concentration thereof was 10^-7 M, or only distilled water was added thereto in the same volume. […] After the specimens were allowed to stand for 10 minutes, ET-1 was successively added to the nutrient solutions so that the concentration thereof was 3×10^-9 M, and the tension of each of the specimens was measured. The relative value to the maximum tension previously determined was calculated, and the inhibitory effect (% inhibition) on contraction due to ET-1 was determined according to the following equation. […]

Compound | IC50 (endothelin receptor) [nM] | % inhibition of contraction due to ET-1 [1] [%]
CC[C@H](C)[C@H](NC(=O)[C@H](CC1CCCCC1)NC(=O)[C@@H](NC(=O)[C@H](CC(C)C)NC(=O)[C@H](Cc1c[nH]cn1)NC(=O)[C@H](C)NC(=O)[C@H](Cc1ccccc1)NC(=O)[C@H](Cc1ccc(O)cc1)NC(=O)[C@@H](NC(=O)[C@H](Cc1c[nH]c2ccccc12)NC(=O)[C@H](CC(=O)O)NC(=O)[C@@H]1CCCN1C(=O)[C@H](C)NC(=O)[C@@H](NC(=O)CNC(=O)[C@H](Cc1c[nH]cn1)NC(=O)[C@H](Cc1c[nH]c2ccccc12)NC(=O)[C@H](CC(N)=O)NC(=O)CN)[C@@H](C)O)C(C)C)[C@@H](C)O)C(=O)N[C@@H](Cc1c[nH]c2ccccc12)C(=O)O [Compound 14, HGlyAsnTrpHisGlyThrAlaProAspTrpValTyrPheAlaHisLeuThrChaIleTrpOH] (H-GNWHGTAPDWVYFAHLT[Cha]IW-OH) | 12 | 47.0
CC[C@H](C)[C@H](NC(=O)[C@H](Cc1cccs1)NC(=O)[C@@H](NC(=O)[C@H](CC(C)C)NC(=O)[C@H](Cc1c[nH]cn1)NC(=O)[C@H](C)NC(=O)[C@H](Cc1ccccc1)NC(=O)[C@H](Cc1ccc(O)cc1)NC(=O)[C@@H](NC(=O)[C@H](Cc1c[nH]c2ccccc12)NC(=O)[C@H](CC(=O)O)NC(=O)[C@@H]1CCCN1C(=O)[C@H](C)NC(=O)[C@@H](NC(=O)CNC(=O)[C@H](Cc1c[nH]cn1)NC(=O)[C@H](Cc1c[nH]c2ccccc12)NC(=O)[C@H](CC(N)=O)NC(=O)CN)[C@@H](C)O)C(C)C)[C@@H](C)O)C(=O)N[C@@H](Cc1c[nH]c2ccccc12)C(=O)O [Compound 17, HGlyAsnTrpHisGlyThrAlaProAspTrpValTyrPheAlaHisLeuThrThiIleTrpOH] (H-GNWHGTAPDWVYFAHLT[2Thi]IW-OH) | 0.12 | 61.3
H-GNWHGTAPDWVYFAHLSMIW-OH [Compound 21] | 0.96 | 40.4
CC[C@H](C)[C@H](NC(=O)[C@H](CC(C)C)NC(=O)[C@@H](NC(=O)[C@H](CC(C)C)NC(=O)[C@H](Cc1c[nH]cn1)NC(=O)[C@H](C)NC(=O)[C@H](Cc1ccccc1)NC(=O)[C@H](Cc1ccc(O)cc1)NC(=O)[C@@H](NC(=O)[C@H](Cc1c[nH]c2ccccc12)NC(=O)[C@@H]1CC(=O)NCC(=O)N[C@@H](CC(N)=O)C(=O)N[C@@H](Cc2c[nH]c3ccccc23)C(=O)N[C@@H](Cc2c[nH]cn2)C(=O)NCC(=O)N[C@@H]([C@@H](C)O)C(=O)N[C@@H](C)C(=O)N2CCC[C@H]2C(=O)N1)C(C)C)[C@@H](C)O)C(=O)N[C@@H](Cc1c[nH]c2ccccc12)C(=O)O [Compound 40] (GNWHGTAPDWVYFAHLTLIW-OH; lactam N-9) | 34 | –
H-GNWHTTAPDWVYFAHLDIIW-OH [Compound 2, HGlyAsnTrpHisThrThrAlaProAspTrpValTyrPheAlaHisLeuAspIleleTrpOH] | 0.061 | –
H-GDWKGTSPDWVYFAHLDIIW-OH [Compound 6, HGlyAspTrpLysGlyThrSerProAspTrpValTyrPheAlaHisLeuAsplleIleTrpOH] | 0.11 | –
H-GNWHGTAPDWVYFAHLNYIW-OH [Compound 20] | 12 | –
CC[C@H](C)[C@H](NC(=O)[C@H](Cc1cccs1)NC(=O)[C@@H](NC(=O)[C@H](CC(C)C)NC(=O)[C@H](Cc1c[nH]cn1)NC(=O)[C@H](C)NC(=O)[C@H](Cc1ccccc1)NC(=O)[C@H](Cc1ccc(O)cc1)NC(=O)[C@@H](NC(=O)[C@H](Cc1c[nH]c2ccccc12)NC(=O)[C@@H]1CSSC[C@H](N)C(=O)N[C@@H](CC(=O)O)C(=O)N[C@@H](Cc2c[nH]c3ccccc23)C(=O)N[C@@H](CCCCN)C(=O)NCC(=O)N[C@@H]([C@@H](C)O)C(=O)N[C@@H](CO)C(=O)N2CCC[C@H]2C(=O)N1)C(C)C)[C@@H](C)O)C(=O)N[C@@H](Cc1c[nH]c2ccccc12)C(=O)O [Compound 35] (H-CDWKGTSPCWVYFAHLT[2Thi]IW-OH; disulfide 1-9) | 1.6 | –
CC[C@H](NC(=O)[C@@H](NC(=O)[C@H](CC(C)C)NC(=O)[C@H](Cc1c[nH]cn1)NC(=O)[C@H](C)NC(=O)[C@H](Cc1ccccc1)NC(=O)[C@H](Cc1ccc(O)cc1)NC(=O)[C@@H](NC(=O)[C@H](Cc1c[nH]c2ccccc12)NC(=O)[C@H](CC(=O)O)NC(=O)[C@@H]1CCCN1C(=O)[C@H](C)NC(=O)[C@@H](NC(=O)CNC(=O)[C@H](Cc1c[nH]cn1)NC(=O)[C@H](Cc1c[nH]c2ccccc12)NC(=O)[C@H](CC(N)=O)NC(=O)CN)[C@@H](C)O)C(C)C)[C@@H](C)O)C(=O)N[C@H](C(=O)N[C@@H](Cc1c[nH]c2ccccc12)C(=O)O)[C@@H](C)CC [Compound 15, HGlyAsnTrpHisGlyThrAlaProAspTrpValTyrPheAlaHisLeuThrAbuIleTrpOH] (H-GNWHGTAPDWVYFAHLT[Abu]IW-OH) | 0.11 | –
CC[C@H](C)[C@H](NC(=O)[C@H](Cc1cccs1)NC(=O)CNC(=O)[C@H](CC(C)C)NC(=O)[C@H](Cc1c[nH]cn1)NC(=O)[C@H](C)NC(=O)[C@H](Cc1ccccc1)NC(=O)[C@H](Cc1ccc(O)cc1)NC(=O)[C@@H](NC(=O)[C@H](Cc1c[nH]c2ccccc12)NC(=O)[C@H](CC(=O)O)NC(=O)[C@@H]1CCCN1C(=O)[C@H](C)NC(=O)[C@@H](NC(=O)CNC(=O)[C@H](Cc1c[nH]cn1)NC(=O)[C@H](Cc1c[nH]c2ccccc12)NC(=O)[C@H](CC(N)=O)NC(=O)CN)[C@@H](C)O)C(C)C)C(=O)N[C@@H](Cc1c[nH]c2ccccc12)C(=O)O [Compound 30, HGlyAsnTrpHisGlyThrAlaProAspTrpValTyrPheAlaHisLeuGlyThiIleTrpOH] (H-GNWHGTAPDWVYFAHLG[2Thi]IW-OH) | 170 | –
